# Assay results published in patent US20240239752A1, “BICYCLIC HETEROAROMATIC INHIBITORS OF KLK5” (BioCryst Pharmaceuticals, Inc., priority 2021, published 2024).
# Biological target: T1, recombinant human KLK5 (Homo sapiens, UniProt Q9Y337)
# T1 construct: purchased Novoprotein or R&D Systems C415 or 1108-SE
# T1 sequence (Q9Y337 23-293): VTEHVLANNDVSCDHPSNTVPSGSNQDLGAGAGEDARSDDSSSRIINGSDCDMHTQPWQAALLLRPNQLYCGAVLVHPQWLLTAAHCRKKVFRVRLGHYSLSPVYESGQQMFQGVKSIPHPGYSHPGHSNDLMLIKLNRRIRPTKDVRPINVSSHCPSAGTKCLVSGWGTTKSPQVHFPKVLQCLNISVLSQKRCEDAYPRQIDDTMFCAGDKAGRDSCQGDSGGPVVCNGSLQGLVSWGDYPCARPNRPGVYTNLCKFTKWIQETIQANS
# Assay: Kallikrein (KLK) 5 enzymatic assay (Boc-VPR-AMC fluorogenic substrate)
# Assay type: biochemical
# Conditions: recombinant human KLK5 0.1 μg/well, Boc-VPR-AMC 100 μM, pH 7.5, room temperature, 1% DMSO; tested a minimum of three times
# Procedure, shortened: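 Fluorogenic rate assay at pH 7.5 (0.1 M NaH2PO4, 1% DMSO, room temperature), run at least three times per compound. Compound was premixed with 0.1 μg/well recombinant human KLK5 before adding 100 μM Boc-VPR-AMC; AMC release was read at ex 380/em 460 nm, and IC50 derived from inhibition of rate vs DMSO control.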
row,SMILES,IC50 [nM]
1,"COC(=O)N1CCC2(CC1)CC(Oc1cc(C)ccc1CC(=O)O)c1cc(-c3ccc4ccnc(N)c4c3)ccc12 (stereo not shown) [Compound 412c, 2-(2-((5-(1-aminoisoquinolin-7-yl)-1′-(methoxycarbonyl)-2,3-dihydrospiro[indene-1,4′-piperidin]-3-yl)oxy)-4-methylphenyl)acetic acid]",< 1000
2,"COCCn1nc(COc2ccccc2CC(=O)O)c2cc(-c3ccc4ccnc(N)c4c3)ccc21 [Compound 111e, 2-(2-((5-(1-aminoisoquinolin-7-yl)-1-(2-methoxyethyl)-1H-indazol-3-yl)methoxy)phenyl)acetic acid]",< 1000
3,"Nc1nccc2ccc(-c3ccc4c(c3)[C@H](Oc3cc(F)ccc3CC(=O)O)CC4)cc12 [Compound 421c, (R)-2-(2-((6-(1-aminoisoquinolin-7-yl)-2,3-dihydro-1H-inden-1-yl)oxy)-4-fluorophenyl)acetic acid]",< 1000
4,"Nc1nccc2c(-c3ccc4c(c3)[C@H](Oc3cc(C(F)(F)F)ccc3CC(=O)O)CC4)cccc12 [Compound 428b, (R)-2-(2-((6-(1-aminoisoquinolin-5-yl)-2,3-dihydro-1H-inden-1-yl)oxy)-4-(trifluoromethyl)phenyl)acetic acid]",< 1000
5,"COc1c(C(=N)N)cccc1-c1ccc2c(c1)c(COc1ccccc1CC(=O)O)nn2C1CCOC1 (stereo not shown) [Compound 264d, 2-(2-((5-(3-carbamimidoyl-2-methoxyphenyl)-1-(tetrahydrofuran-3-yl)-1H-indazol-3-yl)methoxy)phenyl)acetic acid]",< 1000
6,"Cc1cccc(OC2CC3(CCCCC3)c3ccc(-c4cccc5c(N)nccc45)cc32)c1CC(=O)O (stereo not shown) [Compound 377c, 2-(2-((5′-(1-aminoisoquinolin-5-yl)-2′,3′-dihydrospiro[cyclohexane-1,1′-inden]-3′-yl)oxy)-6-methylphenyl)acetic acid]",< 1000
7,"Cc1ccc(OCc2c3cc(-c4cccc5c(N)nccc45)ccc3nn2C2CCC2)c(CC(=O)O)c1 [Compound 156b, 2-(2-((5-(1-aminoisoquinolin-5-yl)-2-cyclobutyl-2H-indazol-3-yl)methoxy)-5-methylphenyl)acetic acid]",1000 to 10000
8,"CC(C)n1nc(COc2ccccc2CC(=O)O)c2cc(-c3cccc(-c4cn[nH]c4)c3)ccc21 [Compound 85c, 2-(2-((5-(3-(1H-pyrazol-4-yl)phenyl)-1-isopropyl-1H-indazol-3-yl)methoxy)phenyl)acetic acid]",> 10000
9,"COc1ccc(C(=N)N)cc1-c1ccc2c(c1)c(COc1ccccc1CC(=O)O)nn2C(C)C [Compound 83e, 2-(2-((5-(5-carbamimidoyl-2-methoxyphenyl)-1-isopropyl-1H-indazol-3-yl)methoxy)phenyl)acetic acid]",1000 to 10000
10,"Nc1nccc2c(-c3ccc4c(c3)c(COc3ccccc3CC(=O)O)nn4C3CCNC3)cccc12 (stereo not shown) [Compound 90a, 2-(2-((5-(1-aminoisoquinolin-5-yl)-1-(pyrrolidin-3-yl)-1H-indazol-3-yl)methoxy)phenyl)acetic acid]",< 1000
11,"Nc1nccc2ccc(-c3ccc4c(c3)c(COc3ccccc3CC(=O)O)nn4C3CCNC3)cc12 (stereo not shown) [Compound 91a, 2-(2-((5-(1-aminoisoquinolin-7-yl)-1-(pyrrolidin-3-yl)-1H-indazol-3-yl)methoxy)phenyl)acetic acid]",< 1000
12,"COc1ccc(OCc2c3cc(-c4cccc5c(N)nccc45)ccc3nn2C2CCC2)c(CC(=O)O)c1 [Compound 158b, 2-(2-((5-(1-aminoisoquinolin-5-yl)-2-cyclobutyl-2H-indazol-3-yl)methoxy)-5-methoxyphenyl)acetic acid]",1000 to 10000
13,"Cn1c(=O)n(Cc2ccccc2CC(=O)O)c2cc(-c3cccc(C(=N)N)c3)ccc21 [Compound 219c, 2-(2-((6-(3-carbamimidoylphenyl)-3-methyl-2-oxo-2,3-dihydro-1H-benzo[d]imidazol-1-yl)methyl)phenyl)acetic acid]",1000 to 10000
